From US11279733B2, “Peptide antibiotics” (priority 2017, dated 2022)
≈ marks a conversion by molar mass, not a printed value. Positions of bridges follow the written chain, without caps; N, C: chain ends. Non-standard residues stand in square brackets, D forms with d. Residues, ends and D or L forms follow the SMILES beside them. *: point of attachment. Decanoyl(3R-OH) = CCCCCCC[C@@H](O)CC(=O)*; Heptanoyl(6-Me) = CC(C)CCCCC(=O)*; dDab = NCC[C@@H](N)C(=O)O; dDap = NC[C@@H](N)C(=O)O; Dab = NCC[C@H](N)C(=O)O; Abu = CC[C@H](N)C(=O)O

Columns and labels:
A. baumannii ATCC 19606 = conditions: ATCC 19606
Summary of the method: (§1)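 Mid-log cultures grown in Mueller Hinton broth at 37° C were tested by 2-fold broth microdilution at 5×10^5 CFU/mL final. Compounds were dissolved in water and tested over a final range of 32 to 0.015 μg/mL.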

A. baumannii GN_093 PmxR = conditions: GN 093 PmxR
Summary of the method: as §1

E. coli ATCC 25922 = conditions: ATCC 25922
Summary of the method: as §1

K. pneumoniae ATCC 13883 = conditions: ATCC 13883
Summary of the method: as §1

[1] = tested on: K. pneumoniae ATCC 700603, MDR; conditions: ATCC 700603
Summary of the method: as §1

[2] = tested on: K. pneumoniae ATCC BAA-2146, NDM-1 pos; conditions: ATCC BAA-2146
Summary of the method: as §1

[3] = tested on: K. pneumoniae GN_102 PmxR; conditions: GN 102 PmxR
Summary of the method: as §1

[4] = tested on: K. pneumoniae GN_106, PmxR; conditions: GN 106, PmxR
Summary of the method: as §1

P. aeruginosa ATCC 27853 = conditions: ATCC 27853
Summary of the method: as §1

[5] = tested on: P. aeruginosa GN_043, PmxR; conditions: P. aeruginosa GN_043, PmxR
Summary of the method: as §1

[6] = tested on: P. aeruginosa GN_105, PmxR; conditions: GN 105, PmxR
Summary of the method: as §1

in vitro = conditions: human
Protocol: Cytotoxicity of the synthesised peptides was evaluated by comparison with commercially available colistin (polymyxin E), polymyxin B (Sigma chemical Co., St. Louis, Mo., U.S.A.) and synthetic octapeptin C4 by conducting lactate dehydrogenase (LDH) assay. CC50 values calculated based on curve fitting of dose dependent inhibition of cell growth represented the cytotoxicity of the peptide. Human kidney 2 (HK2) cells were seeded as 2000 cells per well in a 384 well cell culture plate in a final volume of 20 μL in DMEM/F12 medium (Invitrogen #11330057), in which 10% of FBS was added. Cells were incubated for 24 hours at 37° C., 5% CO2 to allow cells to attach to the plates. Similar conditions were employed for HEK293 and HepG2 cytotoxicity assays.
Cytotoxicity to HEK293 and HepG2 cells was determined using the resazurin assay (McMillian, M. K.; Li, L.; Parker, J. B.; Patel, L.; Zhong, Z.; Gunnett, J. W.; Powers, W. J.; Johnson, M. D. An improved resazurin-based cytotoxicity assay for hepatic cells; Cell Biol. Toxicol. 2002, 18, 157-173; O'Brien, J.; Wilson, I.; Orton, T.; Pognan, F. Investigation of the Alamar Blue (resazurin) fluorescent dye for the assessment of mammalian cell cytotoxicity. Eur. J. Biochem. 2000, 267, 5421-5426). In brief, HEK293 and HepG2 cells were seeded at 4000 cells/well in black-wall, clear-bottom 384-well plates (Corning, Australia) and incubated for 24 h at 37° C., 5% CO2. Compounds were then added into each well. After 24 h incubation, 5 μM resazurin was added per well and incubated at 37° C. for 2 h. Fluorescence intensity was then read using a Polarstar Omega with excitation/emission 560/590. The data was then analyzed using GraphPad Prism 6 software. CC50 values were determined using GraphPad Prism 6 software (Inc. La Jolla, Calif.).

CCCCCCC[C@@H](O)CC(=O)N[C@H](CCN)C(=O)N[C@H]1CCNC(=O)[C@H](CC(C)C)NC(=O)[C@H](CCN)NC(=O)[C@H](CCN)NC(=O)[C@H]([C@@H](C)O)NC(=O)[C@@H](Cc2ccccc2)NC(=O)[C@H](CCN)NC1=O [compound 9289, 3(R)OH-nC9CO-D-Dab-cyc[L-Dab-L-Dab-D-Phe-L-Thr-L-Dab-L-Dab-L-Leu]] ({Decanoyl(3R-OH)}-[dDab][Dab][Dab][dF]T[Dab][Dab]L; lactam 2-C)
MIC A. baumannii ATCC 19606 (A. baumannii ATCC 19606): 2 µg/mL (≈ 1.94 µM)
MIC A. baumannii GN_093 PmxR (A. baumannii GN_093 PmxR): >32 µg/mL
MIC E. coli ATCC 25922 (E. coli ATCC 25922): 2 µg/mL (≈ 1.94 µM)
MIC K. pneumoniae ATCC 13883 (K. pneumoniae ATCC 13883): 2 µg/mL (≈ 1.94 µM)
MIC K. pneumoniae ATCC 700603, MDR [1]: 1 µg/mL (≈ 0.969 µM)
MIC K. pneumoniae ATCC BAA-2146, NDM-1 pos [2]: 2 µg/mL (≈ 1.94 µM)
MIC K. pneumoniae GN_102 PmxR [3]: >32 µg/mL
MIC K. pneumoniae GN_106, PmxR [4]: >32 µg/mL
MIC P. aeruginosa ATCC 27853 (P. aeruginosa ATCC 27853): 1 µg/mL (≈ 0.969 µM)
MIC P. aeruginosa GN_043, PmxR [5]: >32 µg/mL
MIC P. aeruginosa GN_105, PmxR [6]: >32 µg/mL
CC50 at 24 h (in vitro): > 300 µM

CC(C)CCCCC(=O)N[C@H](CCN)C(=O)N[C@H]1CCNC(=O)[C@H](CC(C)C)NC(=O)[C@H](CCN)NC(=O)[C@H](CCN)NC(=O)[C@H](CC(C)C)NC(=O)[C@@H](Cc2ccccc2)NC(=O)[C@H](CCN)NC1=O [compound 9290, 6Me-nC6CO-D-Dab-cyc[L-Dab-L-Dab-D-Phe-L-Leu-L-Dab-L-Dab-L-Leu]] ({Heptanoyl(6-Me)}-[dDab][Dab][Dab][dF]L[Dab][Dab]L; lactam 2-C)
MIC A. baumannii ATCC 19606 (A. baumannii ATCC 19606): 16 µg/mL (≈ 16 µM)
MIC A. baumannii GN_093 PmxR (A. baumannii GN_093 PmxR): 16 µg/mL (≈ 16 µM)
MIC E. coli ATCC 25922 (E. coli ATCC 25922): 8 µg/mL (≈ 8 µM)
MIC K. pneumoniae ATCC 13883 (K. pneumoniae ATCC 13883): 8 µg/mL (≈ 8 µM)
MIC K. pneumoniae ATCC 700603, MDR [1]: 4 µg/mL (≈ 4 µM)
MIC K. pneumoniae ATCC BAA-2146, NDM-1 pos [2]: 4 µg/mL (≈ 4 µM)
MIC K. pneumoniae GN_102 PmxR [3]: 4 µg/mL (≈ 4 µM)
MIC K. pneumoniae GN_106, PmxR [4]: 4 µg/mL (≈ 4 µM)
MIC P. aeruginosa ATCC 27853 (P. aeruginosa ATCC 27853): 2 µg/mL (≈ 2 µM)
MIC P. aeruginosa GN_043, PmxR [5]: 1 µg/mL (≈ 1 µM)
MIC P. aeruginosa GN_105, PmxR [6]: 16 µg/mL (≈ 16 µM)
CC50 at 24 h (in vitro): > 300 µM

CCCCCCC[C@@H](O)CC(=O)N[C@H](CN)C(=O)N[C@H]1CCNC(=O)[C@H](CC(C)C)NC(=O)[C@H](CCN)NC(=O)[C@H](CCN)NC(=O)[C@H](C(C)C)NC(=O)[C@@H](Cc2ccccc2)NC(=O)[C@H](CCN)NC1=O [compound 9291, 3(R)OH-nC9CO-D-Dap-cyc[L-Dab-L-Dab-D-Phe-L-Val-L-Dab-L-Dab-L-Leu]] ({Decanoyl(3R-OH)}-[dDap][Dab][Dab][dF]V[Dab][Dab]L; lactam 2-C)
MIC A. baumannii ATCC 19606 (A. baumannii ATCC 19606): >32 µg/mL
MIC A. baumannii GN_093 PmxR (A. baumannii GN_093 PmxR): 32 µg/mL (≈ 31.5 µM)
MIC E. coli ATCC 25922 (E. coli ATCC 25922): 2 µg/mL (≈ 1.97 µM)
MIC K. pneumoniae ATCC 13883 (K. pneumoniae ATCC 13883): 8 µg/mL (≈ 7.87 µM)
MIC K. pneumoniae ATCC 700603, MDR [1]: 8 µg/mL (≈ 7.87 µM)
MIC K. pneumoniae ATCC BAA-2146, NDM-1 pos [2]: 8 µg/mL (≈ 7.87 µM)
MIC K. pneumoniae GN_102 PmxR [3]: 32 µg/mL (≈ 31.5 µM)
MIC K. pneumoniae GN_106, PmxR [4]: 32 µg/mL (≈ 31.5 µM)
MIC P. aeruginosa ATCC 27853 (P. aeruginosa ATCC 27853): 2 µg/mL (≈ 1.97 µM)
MIC P. aeruginosa GN_043, PmxR [5]: 2 µg/mL (≈ 1.97 µM)
MIC P. aeruginosa GN_105, PmxR [6]: 32 µg/mL (≈ 31.5 µM)
CC50 at 24 h (in vitro): > 300 µM

CCCCCCC[C@@H](O)CC(=O)N[C@H](CN)C(=O)N[C@H]1CCNC(=O)[C@H](CC(C)C)NC(=O)[C@H](CCN)NC(=O)[C@H](CCN)NC(=O)[C@H](CC)NC(=O)[C@@H](Cc2ccccc2)NC(=O)[C@H](CCN)NC1=O [compound 9292, 3(R)OH-nC9CO-D-Dap-cyc[L-Dab-L-Dab-D-Phe-L-Abu-L-Dab-L-Dab-L-Leu]] ({Decanoyl(3R-OH)}-[dDap][Dab][Dab][dF][Abu][Dab][Dab]L; lactam 2-C)
MIC A. baumannii ATCC 19606 (A. baumannii ATCC 19606): 8 µg/mL (≈ 7.98 µM)
MIC A. baumannii GN_093 PmxR (A. baumannii GN_093 PmxR): 8 µg/mL (≈ 7.98 µM)
MIC E. coli ATCC 25922 (E. coli ATCC 25922): 4 µg/mL (≈ 3.99 µM)
MIC K. pneumoniae ATCC 13883 (K. pneumoniae ATCC 13883): 4 µg/mL (≈ 3.99 µM)
MIC K. pneumoniae ATCC 700603, MDR [1]: 4 µg/mL (≈ 3.99 µM)
MIC K. pneumoniae ATCC BAA-2146, NDM-1 pos [2]: 4 µg/mL (≈ 3.99 µM)
MIC K. pneumoniae GN_102 PmxR [3]: 2 µg/mL (≈ 2 µM)
MIC K. pneumoniae GN_106, PmxR [4]: 4 µg/mL (≈ 3.99 µM)
MIC P. aeruginosa ATCC 27853 (P. aeruginosa ATCC 27853): 2 µg/mL (≈ 2 µM)
MIC P. aeruginosa GN_043, PmxR [5]: 2 µg/mL (≈ 2 µM)
MIC P. aeruginosa GN_105, PmxR [6]: 8 µg/mL (≈ 7.98 µM)
CC50 at 24 h (in vitro): > 300 µM
